# What was measured:
# wheat = assay: Test A preemergence; format: in vivo, Triticum aestivum
# How it was run: (§1)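 Pre- and postemergence greenhouse screen. Soil: loam + sand. Spray carrier: solvent mixture, non-phytotoxic, with surfactant. Post timing at 1–2 leaves, height 2–10 cm. Readout: visual injury on a 0–100 scale roughly 10 days after application, untreated plants as reference.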
# corn [1] = assay: Test A preemergence; format: in vivo, Zea mays; settings: Zea mays, pre-emergence, 240 h, 0 to 100 scale where 0 is no effect and 100 is complete control
# How it was run: as §1
# large (Lg) crabgrass [2] = assay: Test A postemergence; format: in vivo, Digitaria sanguinalis; settings: 0 to 100 scale where 0 is no effect and 100 is complete control
# How it was run: as §1
# sedge, umbrella = assay: Test B flooded paddy test; format: in vivo, Cyperus difformis; settings: Cyperus difformis, Flood, 250 g ai/ha; 0 to 100 scale where 0 is no effect and 100 is complete control; read-out: Plant response rating, Sedge, Umbrella
# How it was run: (§2)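 Compound added straight to paddy water, with pots kept flooded 3 cm above soil, on plants grown to the 2-leaf stage. Visual scoring 0-100 (100 = complete control) against untreated controls after 13 to 15 greenhouse days.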
# barnyardgrass [3] = assay: Test B flooded paddy test; format: in vivo, Echinochloa crus-galli; settings: Echinochloa crus-galli; Flood, 250 g ai/ha; 0 to 100 scale where 0 is no effect and 100 is complete control; read-out: Plant response rating, Barnyardgrass
# How it was run: as §2
# large (Lg) crabgrass [4] = assay: Test C preemergence; format: in vivo, Digitaria sanguinalis; settings: Digitaria sanguinalis, pre-emergence
# How it was run: (§3)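 Visual ratings on a 0–100 scale (100 = complete control) were made versus untreated controls after 13–15 greenhouse days. Chemicals in a surfactant-containing non-phytotoxic solvent were applied either preemergence to seeds in loam–sand soil or postemergence to 1- to 4-leaf plants 2–18 cm tall.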
# pigweed = assay: Test C preemergence; format: in vivo, Amaranthus retroflexus; settings: Amaranthus retroflexus, pre-emergence, preemergence, read-out: Pigweed plant response rating
# How it was run: as §3
# wheat, winter = assay: Test C postemergence; format: in vivo, Triticum aestivum
# How it was run: as §3
# corn [5] = assay: Test C postemergence; format: in vivo, Zea mays; settings: Zea mays, post-emergence
# How it was run: as §3
# large (Lg) crabgrass [6] = assay: Test C postemergence; format: in vivo, Digitaria sanguinalis; settings: Digitaria sanguinalis, post-emergence
# How it was run: as §3
# giant foxtail = assay: Test C postemergence; format: in vivo, Setaria faberii; settings: Setaria faberi, post-emergence
# How it was run: as §3
# lambsquarters = assay: Test C postemergence; format: in vivo, Chenopodium album
# How it was run: as §3
# barnyardgrass [7] = assay: Test C postemergence; format: in vivo, Echinochloa crus-galli; settings: Echinochloa crus-galli, post-emergence
# How it was run: as §3
# waterhemp = assay: Test C postemergence; format: in vivo, Amaranthus rudis
# How it was run: as §3
# chickweed = assay: Test C postemergence; format: in vivo, Stellaria media; settings: Stellaria media, post-emergence
# How it was run: as §3
# [8] = 31 g ai/ha, postemergence, visual rating, scale 0 to 100 (0 no effect, 100 complete control), 13 to 15 days
structure (smiles),measurement,setting,value
"FC(F)(F)c1cn(-c2ccccc2Oc2ncc(Cl)cn2)nn1 [Compound 166, 5-chloro-2-[2-[4-(trifluoromethyl)-1H-1,2,3-triazol-1-yl]phenoxy]pyrimidine]",Wheat plant response rating (0 to 100 scale),wheat; 125 g ai/ha,50
same,plant injury at 500 g/ha,"wheat; Triticum aestivum, pre-emergence, 240 h, 500 g ai/ha, 0 to 100 scale where 0 is no effect and 100 is complete control, read-out: Wheat plant response rating",80%
same,"Corn plant response rating (crop injury, 0 = no effect, 100 = complete kill) at 125 g/ha",corn [1]; 125 g ai/ha,30%
same,plant injury at 500 g/ha,"corn [1]; 500 g ai/ha, read-out: Corn plant response rating",30%
same,"Crabgrass, Large plant response rating",large (Lg) crabgrass [2]; 125 g ai/ha,90
same,pest or weed control at 500 g/ha,"large (Lg) crabgrass [2]; Digitaria sanguinalis, post-emergence, 240 h, 500 g ai/ha, read-out: Plant response rating, Crabgrass, Large",100%
same,pest or weed control at 250 g/ha,"sedge, umbrella",95%
same,pest or weed control at 250 g/ha,barnyardgrass [3],60%
same,pest or weed control at 16 g/ha,"large (Lg) crabgrass [4]; 16 g ai/ha, preemergence, scale 0 to 100 (0 no effect, 100 complete control), read-out: Crabgrass, Large plant response rating",100%
same,pest or weed control at 62 g/ha,"large (Lg) crabgrass [4]; 62 g ai/ha, preemergence, scale 0 (no effect) to 100 (complete control), read-out: Crabgrass, Large plant response rating",100%
same,pest or weed control at 125 g/ha,"large (Lg) crabgrass [4]; 125 g ai/ha, preemergence, scale 0 (no effect) to 100 (complete control), read-out: Crabgrass, Large plant response rating",100%
same,pest or weed control at 31 g/ha,"large (Lg) crabgrass [4]; Preemergence, 31 g ai/ha, scale 0 to 100, 0 no effect, 100 complete control, read-out: Plant response rating, Crabgrass, Large",100%
same,pest or weed control at 16 g/ha,"pigweed; 16 g ai/ha, scale 0 to 100 (0 no effect, 100 complete control)",100%
same,pest or weed control at 62 g/ha,"pigweed; 62 g ai/ha, scale 0 (no effect) to 100 (complete control)",100%
same,pest or weed control at 125 g/ha,"pigweed; 125 g ai/ha, scale 0 (no effect) to 100 (complete control)",100%
same,Wheat plant response rating,"wheat, winter; [8]",5
same,plant injury at 16 g/ha,"wheat, winter; Triticum aestivum, post-emergence, 16 g ai/ha, postemergence, 0 is no effect, 100 is complete control, read-out: Plant response rating (0 to 100), Wheat",5%
same,plant injury at 125 g/ha,"wheat, winter; Triticum aestivum, post-emergence, 125 g ai/ha, postemergence, visual rating, scale 0 to 100 (0 no effect, 100 complete control), read-out: Plant response rating, Wheat",20%
same,plant injury at 62 g/ha,"wheat, winter; Triticum aestivum, post-emergence, Postemergence, 62 g ai/ha, scale 0 to 100 (0 no effect, 100 complete control), read-out: Plant response rating, Wheat",35%
same,plant injury at 16 g/ha,"corn [5]; 16 g ai/ha, postemergence, 0 is no effect, 100 is complete control, read-out: Plant response rating (0 to 100), Corn",5%
same,plant injury at 31 g/ha,"corn [5]; 31 g ai/ha, postemergence, visual rating, scale 0 to 100 (0 no effect, 100 complete control), 13 to 15 days, read-out: Corn plant response rating",5%
same,"Corn plant response rating (crop injury, 0 = no effect, 100 = complete kill) at 125 g/ha","corn [5]; 125 g ai/ha, postemergence, visual rating, scale 0 to 100 (0 no effect, 100 complete control)",15%
same,"Corn plant response rating (crop injury, 0 = no effect, 100 = complete kill) at 62 g/ha","corn [5]; Postemergence, 62 g ai/ha, scale 0 to 100 (0 no effect, 100 complete control)",10%
same,pest or weed control at 16 g/ha,"large (Lg) crabgrass [6]; 16 g ai/ha, postemergence, 0 is no effect, 100 is complete control, read-out: Plant response rating (0 to 100), Crabgrass, Large",5%
same,pest or weed control at 31 g/ha,"large (Lg) crabgrass [6]; 31 g ai/ha, postemergence, visual rating, scale 0 to 100 (0 no effect, 100 complete control), 13 to 15 days, read-out: Crabgrass, Large plant response rating",5%
same,pest or weed control at 125 g/ha,"large (Lg) crabgrass [6]; 125 g ai/ha, postemergence, visual rating, scale 0 to 100 (0 no effect, 100 complete control), read-out: Plant response rating, Crabgrass, Large",15%
same,pest or weed control at 62 g/ha,"large (Lg) crabgrass [6]; Postemergence, 62 g ai/ha, scale 0 to 100 (0 no effect, 100 complete control), read-out: Plant response rating, Crabgrass, Large",10%
same,pest or weed control at 16 g/ha,"giant foxtail; 16 g ai/ha, postemergence, 0 is no effect, 100 is complete control, read-out: Plant response rating (0 to 100), Foxtail, Giant",5%
same,pest or weed control at 31 g/ha,"giant foxtail; 31 g ai/ha, postemergence, visual rating, scale 0 to 100 (0 no effect, 100 complete control), 13 to 15 days, read-out: Foxtail, Giant plant response rating",5%
same,pest or weed control at 125 g/ha,"giant foxtail; 125 g ai/ha, postemergence, visual rating, scale 0 to 100 (0 no effect, 100 complete control), read-out: Plant response rating, Foxtail, Giant",35%
same,pest or weed control at 62 g/ha,"giant foxtail; Postemergence, 62 g ai/ha, scale 0 to 100 (0 no effect, 100 complete control), read-out: Plant response rating, Foxtail, Giant",10%
same,Lambsquarters plant response rating,lambsquarters; [8],80
same,pest or weed control at 16 g/ha,"lambsquarters; Chenopodium album, post-emergence, 16 g ai/ha, postemergence, 0 is no effect, 100 is complete control, read-out: Plant response rating (0 to 100), Lambsquarters",40%
same,pest or weed control at 125 g/ha,"lambsquarters; Chenopodium album, post-emergence, 125 g ai/ha, postemergence, visual rating, scale 0 to 100 (0 no effect, 100 complete control), read-out: Plant response rating, Lambsquarters",98%
same,pest or weed control at 62 g/ha,"lambsquarters; Chenopodium album, post-emergence, Postemergence, 62 g ai/ha, scale 0 to 100 (0 no effect, 100 complete control), read-out: Plant response rating, Lambsquarters",95%
same,pest or weed control at 16 g/ha,"barnyardgrass [7]; 16 g ai/ha, postemergence, 0 is no effect, 100 is complete control, read-out: Plant response rating (0 to 100), Barnyardgrass",5%
same,pest or weed control at 31 g/ha,"barnyardgrass [7]; 31 g ai/ha, postemergence, visual rating, scale 0 to 100 (0 no effect, 100 complete control), 13 to 15 days, read-out: Barnyardgrass plant response rating",10%
same,pest or weed control at 125 g/ha,"barnyardgrass [7]; 125 g ai/ha, postemergence, visual rating, scale 0 to 100 (0 no effect, 100 complete control), read-out: Plant response rating, Barnyardgrass",15%
same,pest or weed control at 62 g/ha,"barnyardgrass [7]; Postemergence, 62 g ai/ha, scale 0 to 100 (0 no effect, 100 complete control), read-out: Plant response rating, Barnyardgrass",10%
same,Waterhemp plant response rating,waterhemp; [8],85
same,pest or weed control at 16 g/ha,"waterhemp; Amaranthus tuberculatus, post-emergence, 16 g ai/ha, postemergence, 0 is no effect, 100 is complete control, read-out: Plant response rating (0 to 100), Waterhemp",75%
same,pest or weed control at 125 g/ha,"waterhemp; Amaranthus tuberculatus, post-emergence, 125 g ai/ha, postemergence, visual rating, scale 0 to 100 (0 no effect, 100 complete control), read-out: Plant response rating, Waterhemp",90%
same,pest or weed control at 62 g/ha,"waterhemp; Amaranthus tuberculatus, post-emergence, Postemergence, 62 g ai/ha, scale 0 to 100 (0 no effect, 100 complete control), read-out: Plant response rating, Waterhemp",90%
same,pest or weed control at 16 g/ha,"chickweed; 16 g ai/ha, postemergence, 0 is no effect, 100 is complete control, read-out: Plant response rating (0 to 100), Chickweed",60%
same,pest or weed control at 31 g/ha,"chickweed; 31 g ai/ha, postemergence, visual rating, scale 0 to 100 (0 no effect, 100 complete control), 13 to 15 days, read-out: Chickweed plant response rating",80%
same,pest or weed control at 125 g/ha,"chickweed; 125 g ai/ha, postemergence, visual rating, scale 0 to 100 (0 no effect, 100 complete control), read-out: Plant response rating, Chickweed",95%
same,pest or weed control at 62 g/ha,"chickweed; Postemergence, 62 g ai/ha, scale 0 to 100 (0 no effect, 100 complete control), read-out: Plant response rating, Chickweed",90%
